The results in this text go back to article PMC11881577, “In vitro and in vivo activity of 1,2,3,4,6-O-pentagalloyl-glucose against Candida albicans” (Antimicrobial Agents and Chemotherapy, 2025).

Broadly, the Ki is a dissociation constant, usually derived from enzyme kinetics or from competition with a known ligand. Higher therefore signals weaker binding. The term IC50 denotes the midpoint of a concentration-inhibition curve. Low values mean higher potency, high ones lower potency.

The target of one assay is T1, CaEno1 (Candida albicans, UniProt P30575).
T1 construct: gene ENO1; recombinant, 6 × His tag, expressed in E. coli BL21(DE3)
T1 sequence (P30575 whole entry): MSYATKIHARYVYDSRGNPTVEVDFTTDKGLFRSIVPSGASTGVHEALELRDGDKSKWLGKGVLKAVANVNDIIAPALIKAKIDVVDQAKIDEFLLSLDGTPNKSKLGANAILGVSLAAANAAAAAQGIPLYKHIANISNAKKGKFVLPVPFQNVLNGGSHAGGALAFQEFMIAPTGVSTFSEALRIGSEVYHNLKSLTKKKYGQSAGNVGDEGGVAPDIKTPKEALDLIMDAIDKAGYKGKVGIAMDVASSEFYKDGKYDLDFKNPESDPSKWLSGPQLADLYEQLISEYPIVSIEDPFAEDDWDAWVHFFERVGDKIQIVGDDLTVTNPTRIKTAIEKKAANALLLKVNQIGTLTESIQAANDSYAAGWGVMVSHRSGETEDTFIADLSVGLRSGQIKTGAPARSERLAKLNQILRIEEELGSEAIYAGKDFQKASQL
Put plainly: spectrophotometric enolase assay (PEP formation at […] nm) on purified enzyme; supported by DARTS. The assay is classed as biochemical.

The next assay has as its target T2, hEno1 (Homo sapiens, UniProt P06733).
T2 construct: gene ENO1; recombinant hEno1, expressed and purified using the same procedure as CaEno1
Briefly: spectrophotometric enolase assay (PEP formation at […] nm) on purified enzyme. The format is biochemical.

T2 sequence (P06733 2-434): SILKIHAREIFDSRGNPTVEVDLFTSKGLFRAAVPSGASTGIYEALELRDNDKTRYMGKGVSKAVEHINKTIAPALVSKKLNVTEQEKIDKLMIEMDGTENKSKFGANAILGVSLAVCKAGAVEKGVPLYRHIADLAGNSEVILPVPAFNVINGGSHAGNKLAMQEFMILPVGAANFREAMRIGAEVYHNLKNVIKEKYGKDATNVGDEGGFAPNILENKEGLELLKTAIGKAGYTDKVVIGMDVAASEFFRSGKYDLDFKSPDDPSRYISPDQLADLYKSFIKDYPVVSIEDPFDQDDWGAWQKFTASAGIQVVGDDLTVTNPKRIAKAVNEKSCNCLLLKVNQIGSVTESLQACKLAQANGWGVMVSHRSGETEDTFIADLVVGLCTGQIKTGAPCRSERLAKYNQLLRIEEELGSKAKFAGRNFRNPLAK

Compound `O=C(OC[C@H]1O[C@@H](OC(=O)c2cc(O)c(O)c(O)c2)[C@H](OC(=O)c2cc(O)c(O)c(O)c2)[C@@H](OC(=O)c2cc(O)c(O)c(O)c2)[C@@H]1OC(=O)c1cc(O)c(O)c(O)c1)c1cc(O)c(O)c(O)c1` [1,2,3,4,6-O-pentagalloyl-glucose] yielded a Ki at CaEno1 of 1.1 ± 0.14 µM. This compound registered an IC50 on hEno1 of 1.5 ± 0.27 µM.
